Entries after “also recorded” stand apart in the source; their conditions may differ. Calls of active or inactive are those of the source. How the calls were made is not given here.
System: CCRIS mutagenicity, Ames/micronucleus/aberration tests
Assay: CCRIS mutagenicity studies
[1] = Test System: AMES SALMONELLA TYPHIMURIUM, Strain/Indicator: TA98, Metabolic Activation: NONE, Method: STANDARD PLATE
[2] = Test System: AMES SALMONELLA TYPHIMURIUM, Strain/Indicator: TA100, Metabolic Activation: NONE, Method: STANDARD PLATE

## c12c3c4c5c1c1c6c7c2c2c8c3c3c9c4c4c%10c5c5c1c1c6c6c%11c7c2c2c7c8c3c3c8c9c4c4c9c%10c5c5c1c1c6c6c%11c2c2c7c3c3c8c4c4c9c5c1c1c6c2c3c41
End Point: In vitro chromosomal aberrations, Test System: Chinese hamster lung (CHL/IU) cells, Metabolic Activation: None
  mutagenic call: inactive; negative
End Point: In vitro chromosomal aberrations, Test System: Chinese hamster lung (CHL/IU) cells, Metabolic Activation: S-9
  mutagenic call: inactive; negative
End Point: In vitro micronucleus, Test System: Chinese hamster ovary (CHO) cells, Metabolic Activation: None
  mutagenic call: active; positive (material tested was fullerol, c60(oh)24); also recorded: active; positive; actual chemical tested was hydroxyl fullerene c-60
End Point: In vitro micronucleus, Test System: Human Hela cells, Metabolic Activation: None
  mutagenic call: active; positive (material tested was fullerol, c60(oh)24)
End Point: In vitro micronucleus, Test System: Human embryonic kidney 293 (HEK293) cells, Metabolic Activation: None
  mutagenic call: inactive; negative; actual chemical tested was hydroxyl fullerene c-60
End Point: In vitro micronucleus, Test System: Human embryonic kidney cells (HEK 293), Metabolic Activation: None
  mutagenic call: active; positive (material tested was fullerol, c60(oh)24)
End Point: In vitro micronucleus, Test System: Human epidermoid-like carcinoma (Hela) cells, Metabolic Activation: None
  mutagenic call: inactive; negative; actual chemical tested was hydroxyl fullerene c-60
Test System: Ames Salmonella typhimurium, Strain/Indicator: TA98, Metabolic Activation: None, Method: Preincubation
  mutagenic call: inactive; negative
Test System: Ames Salmonella typhimurium, Strain/Indicator: TA98, Metabolic Activation: S-9, Method: Preincubation
  mutagenic call: inactive; negative
Test System: Ames Salmonella typhimurium, Strain/Indicator: TA100, Metabolic Activation: None, Method: Preincubation
  mutagenic call: inactive; negative
Test System: Ames Salmonella typhimurium, Strain/Indicator: TA100, Metabolic Activation: S-9, Method: Preincubation
  mutagenic call: inactive; negative
Test System: Ames Salmonella typhimurium, Strain/Indicator: TA1535, Metabolic Activation: None, Method: Preincubation
  mutagenic call: inactive; negative
Test System: Ames Salmonella typhimurium, Strain/Indicator: TA1535, Metabolic Activation: S-9, Method: Preincubation
  mutagenic call: inactive; negative
Test System: Ames Salmonella typhimurium, Strain/Indicator: TA1537, Metabolic Activation: None, Method: Preincubation
  mutagenic call: inactive; negative
Test System: Ames Salmonella typhimurium, Strain/Indicator: TA1537, Metabolic Activation: S-9, Method: Preincubation
  mutagenic call: inactive; negative
Test System: E. coli, Strain/Indicator: WP2 uvrA/pKM101, Metabolic Activation: None, Method: Preincubation
  mutagenic call: inactive; negative
Test System: E. coli, Strain/Indicator: WP2 uvrA/pKM101, Metabolic Activation: S-9, Method: Preincubation
  mutagenic call: inactive; negative
Test System: Gpt delta transgenic mouse primary embryo fibroblasts (MEF), Strain/Indicator: Red/gam gene mutants, Metabolic Activation: None, Method: Spi- mutation assay
  mutagenic call: active; positive

## O=[N+]([O-])c1ccc2c([N+](=O)[O-])cc3ccccc3c2c1
Test System: AMES SALMONELLA TYPHIMURIUM, Strain/Indicator: TA98(1,8-DNP6), Metabolic Activation: NONE, Method: STANDARD PLATE
  mutagenic call: active; positive
Test System: AMES SALMONELLA TYPHIMURIUM, Strain/Indicator: TA98(NR), Metabolic Activation: NONE, Method: STANDARD PLATE
  mutagenic call: active; positive
[1]
  mutagenic call: active; positive
[2]
  mutagenic call: active; positive
Test System: AMES SALMONELLA TYPHIMURIUM, Strain/Indicator: YG1021, Metabolic Activation: NONE, Method: STANDARD PLATE
  mutagenic call: active; positive
Test System: AMES SALMONELLA TYPHIMURIUM, Strain/Indicator: YG1024, Metabolic Activation: NONE, Method: STANDARD PLATE
  mutagenic call: active; positive
Test System: AMES SALMONELLA TYPHIMURIUM, Strain/Indicator: YG1026, Metabolic Activation: NONE, Method: STANDARD PLATE
  mutagenic call: active; positive
Test System: AMES SALMONELLA TYPHIMURIUM, Strain/Indicator: YG1029, Metabolic Activation: NONE, Method: STANDARD PLATE
  mutagenic call: active; positive

## CP1(C)=NP(C)(C)=NP(C)(C)=N1
[1]
  mutagenic call: inactive; negative
Test System: AMES SALMONELLA TYPHIMURIUM, Strain/Indicator: TA98, Metabolic Activation: RAT, LIVER, S-9, AROCLOR 1254, Method: STANDARD PLATE
  mutagenic call: inactive; negative
[2]
  mutagenic call: inactive; negative
Test System: AMES SALMONELLA TYPHIMURIUM, Strain/Indicator: TA100, Metabolic Activation: RAT, LIVER, S-9, AROCLOR 1254, Method: STANDARD PLATE
  mutagenic call: inactive; negative

## O=S(=O)(O)c1cc(N=Nc2ccc(O)cc2)ccc1C=Cc1ccc(N=Nc2ccc(O)cc2)cc1S(=O)(=O)O
Test System: MOUSE LYMPHOMA, Strain/Indicator: L5178Y (TK+/TK-), Metabolic Activation: NONE, Method: SUSPENSION/PLATE
  mutagenic call: inactive; negative. reevaluation of results: negative
Test System: MOUSE LYMPHOMA, Strain/Indicator: L5178Y (TK+/TK-), Metabolic Activation: RAT, LIVER, S-9, AROCLOR 1254, Method: SUSPENSION/PLATE
  mutagenic call: inactive; negative. reevaluation of results: negative

## C=C1C[C@@]23CCC4[C@](C)(C(=O)O)CCC[C@@]4(C)[C@@H]2CC[C@]1(OC(C)=O)C3 (stereo partly drawn)
Test System: AMES SALMONELLA TYPHIMURIUM, Strain/Indicator: TM677, Metabolic Activation: RAT, LIVER, S-9, AROCLOR 1254, Method: PREINCUBATION
  mutagenic call: inactive; negative

## Cc1ccccc1NC(=O)c1csc([N+](=O)[O-])c1
[1]
  mutagenic call: active; positive
[2]
  mutagenic call: active; positive

## Nc1ccccc1C(=O)OCCc1ccccc1
Test System: AMES SALMONELLA TYPHIMURIUM, Strain/Indicator: TA97, Metabolic Activation: HAMSTER, LIVER, S-9, AROCLOR 1254 (10 OR 30%), Method: PREINCUBATION
  mutagenic call: inactive; negative
Test System: AMES SALMONELLA TYPHIMURIUM, Strain/Indicator: TA97, Metabolic Activation: NONE, Method: PREINCUBATION
  mutagenic call: inactive; negative
Test System: AMES SALMONELLA TYPHIMURIUM, Strain/Indicator: TA97, Metabolic Activation: RAT, LIVER, S-9, AROCLOR 1254 (10 OR 30%), Method: PREINCUBATION
  mutagenic call: inactive; negative
Test System: AMES SALMONELLA TYPHIMURIUM, Strain/Indicator: TA98, Metabolic Activation: HAMSTER, LIVER, S-9, AROCLOR 1254 (10 OR 30%), Method: PREINCUBATION
  mutagenic call: inactive; negative
Test System: AMES SALMONELLA TYPHIMURIUM, Strain/Indicator: TA98, Metabolic Activation: NONE, Method: PREINCUBATION
  mutagenic call: inactive; negative
Test System: AMES SALMONELLA TYPHIMURIUM, Strain/Indicator: TA98, Metabolic Activation: RAT, LIVER, S-9, AROCLOR 1254 (10 OR 30%), Method: PREINCUBATION
  mutagenic call: inactive; negative
Test System: AMES SALMONELLA TYPHIMURIUM, Strain/Indicator: TA100, Metabolic Activation: HAMSTER, LIVER, S-9, AROCLOR 1254 (10 OR 30%), Method: PREINCUBATION
  mutagenic call: inactive; negative
Test System: AMES SALMONELLA TYPHIMURIUM, Strain/Indicator: TA100, Metabolic Activation: NONE, Method: PREINCUBATION
  mutagenic call: inactive; negative
Test System: AMES SALMONELLA TYPHIMURIUM, Strain/Indicator: TA100, Metabolic Activation: RAT, LIVER, S-9, AROCLOR 1254 (10 OR 30%), Method: PREINCUBATION
  mutagenic call: inactive; negative
Test System: AMES SALMONELLA TYPHIMURIUM, Strain/Indicator: TA1535, Metabolic Activation: HAMSTER, LIVER, S-9, AROCLOR 1254 (10 OR 30%), Method: PREINCUBATION
  mutagenic call: inactive; negative
Test System: AMES SALMONELLA TYPHIMURIUM, Strain/Indicator: TA1535, Metabolic Activation: NONE, Method: PREINCUBATION
  mutagenic call: inactive; negative
Test System: AMES SALMONELLA TYPHIMURIUM, Strain/Indicator: TA1535, Metabolic Activation: RAT, LIVER, S-9, AROCLOR 1254 (10 OR 30%), Method: PREINCUBATION
  mutagenic call: inactive; negative

## Cc1ccc(NC2OC[C@@H](O)[C@H](O)[C@H]2O)cc1 (stereo partly drawn)
Test System: AMES SALMONELLA TYPHIMURIUM, Strain/Indicator: TA100, Metabolic Activation: NONE, Method: LIQUID INCUBATION
  mutagenic call: active; positive
